{"source": "patent US8084627B2", "about": "“Hydroxymethyl fluorescein derivatives for use as biological markers and dyes” (University of Pittsburgh-of the Commonwealth System of …, priority 2007, dated 2011)", "key": {"Zebrafish embryos": {"test_system": "Zebrafish embryos", "assay": "Zebrafish embryo staining: localization and tissue permeability", "assay_type": "in vivo", "details": "confocal projections of head and tail, 80 μm of embryonic interior", "text": "Zebrafish embryos were stained with compound 3 and compound 4 in order to assess the localization and tissue permeability of each compound in vivo. This procedure had not previously been attempted in zebrafish embryos with an unconjugated fluorescein derivative. Therefore, the commercially available BODIPY TR methyl ester was used as a control stain since it has been successfully used for this purpose.[10] […] Yolk sacs and yolk extensions always appeared brighter than the embryos themselves (FIG. 3A-C). This is likely the result of compound accumulation within the lipidic yolk platelets that comprise almost the entire volume of the yolk.[11]\nStructures containing little organic material, including scales and calcified otoliths, were not stained. Confocal sections of the dorsal midline (FIG. 3H, J, L) indicate that the notochord sheath and surrounding tissue are efficiently labeled, while the notochord vacuoles remain unstained."}, "live human cells": {"test_system": "live human cells", "details": "compared with Tokyo Green; cited from earlier work"}, "[1]": {"details": "carboxyl group replaced with methyl group; cited from earlier work"}}}
{"smiles": "COC(=O)COc1ccc(C2=[N+]3C(=Cc4ccc(-c5cccs5)n4[B-]3(F)F)C=C2)cc1", "note": "[BODIPY TR methyl ester]", "values": [{"measurement": "permeation of live tissue", "setting": "Zebrafish embryos", "result": "permeate live tissue to similar extents"}]}
{"smiles": "Cc1ccccc1-c1c2cc(F)c(=O)cc-2oc2cc(O)c(F)cc12", "note": "[Pennsylvania Green]", "values": [{"measurement": "fluorescence in live human cells", "setting": "live human cells", "result": "more fluorescent than Tokyo Green"}]}
{"smiles": "Cc1ccccc1-c1c2ccc(=O)cc-2oc2cc(O)ccc12", "note": "[Tokyo Green]", "values": [{"measurement": "quantum yield relative to fluorescein", "setting": "[1]", "result": "no loss of quantum yield"}]}
